# Test results as given in PubChem BioAssay AID328 (DTP/NCI, 2004).
# Where “and” joins values, the source holds several entries; their conditions need not be identical. Equal values may be shown once. Toxic doses and inconclusive results are not listed.
# Test system: BDF1 mice, P388 leukemia ip, median survival T/C
# Assay: NCI In Vivo Anticancer Drug Screen. Data for tumor model P388 Leukemia (intraperitoneal) in B6D2F1 (BDF1) mice
# Conditions: endpoint: median survival time, higher = longer survival
# In short: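 Mice carrying the transplantable tumour receive compound or vehicle. Survival is followed in each arm, and the treated measure is divided by the vehicle measure.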
# [1] = dose: 100.0 mg/kg/injection, schedule: Q01DX009 (ip), vehicle: Klucel (hydroxypropylcellulose) (HPC)
# [2] = dose: 200.0 mg/kg/injection, schedule: Q01DX009 (ip), vehicle: Klucel (hydroxypropylcellulose) (HPC)
# [3] = dose: 400.0 mg/kg/injection, schedule: Q01DX009 (ip), vehicle: Klucel (hydroxypropylcellulose) (HPC)
# [4] = dose: 50.0 mg/kg/injection, schedule: Q01DX009 (ip), vehicle: saline with Tween-80
# [5] = dose: 100.0 mg/kg/injection, schedule: Q01DX009 (ip), vehicle: saline with Tween-80
# [6] = dose: 200.0 mg/kg/injection, schedule: Q01DX009 (ip), vehicle: saline with Tween-80
# [7] = dose: 100.0 mg/kg/injection, schedule: Q01DX009 (ip), vehicle: saline
# [8] = dose: 50.0 mg/kg/injection, schedule: Q04DX003 (ip), vehicle: saline with Tween-80
# [9] = dose: 100.0 mg/kg/injection, schedule: Q04DX003 (ip), vehicle: saline with Tween-80
# [10] = dose: 200.0 mg/kg/injection, schedule: Q04DX003 (ip), vehicle: saline with Tween-80
# [11] = dose: 200.0 mg/kg/injection, schedule: Q01DX009 (ip), vehicle: saline
# [12] = dose: 400.0 mg/kg/injection, schedule: Q01DX009 (ip), vehicle: saline
# [13] = dose: 25.0 mg/kg/injection, schedule: Q01DX009 (ip), vehicle: saline
# [14] = dose: 50.0 mg/kg/injection, schedule: Q01DX009 (ip), vehicle: saline
smiles,measurement,setting,value
C=C(C)[C@@H]1CC[C@]2(CO)CC[C@]3(C)[C@H](CC[C@@H]4[C@@]5(C)CC[C@H](O)C(C)(C)[C@@H]5CC[C@]43C)[C@@H]12,T/C,"dose: 10.0 mg/kg/injection, schedule: Q01DX009 (ip), vehicle: saline with Tween-80",94 % of control
same,T/C,"dose: 20.0 mg/kg/injection, schedule: Q01DX009 (ip), vehicle: saline with Tween-80",99 % of control
same,T/C,"dose: 40.0 mg/kg/injection, schedule: Q01DX009 (ip), vehicle: saline with Tween-80",100 % of control
same,T/C,"dose: 75.0 mg/kg/injection, schedule: Q01DX009 (ip), vehicle: other",97 % of control
same,T/C,"dose: 80.0 mg/kg/injection, schedule: Q01DX009 (ip), vehicle: saline with Tween-80",95 % of control
same,T/C,[1],101 % of control
same,T/C,"dose: 150.0 mg/kg/injection, schedule: Q01DX009 (ip), vehicle: other",106 % of control
same,T/C,[2],98 % of control
same,T/C,[3],111 % of control
CC(=O)Oc1c(C)c2c(O)c3c1C1=C(OCOC1=C(C)C3=O)C(C)=CC(C)(O)C(O)C(C)C(O)C1C(=O)OC(C(C)/C=C\C=C(C)C(=O)N2)C(C)C1O (stereo unspecified),T/C,[1],119 % of control
same,T/C,[2],123 % of control
same,T/C,[3],110 % of control
CCOC(=O)c1ccc2c3c([nH]c2c1C)-c1ccccc1CC3,T/C,[4],120 % of control
same,T/C,[5],111 % of control
same,T/C,[6],118 % of control
CCCCCCCCCCCCCCCCCOc1ccc2ccccc2c1,T/C,"dose: 25.0 mg/kg/injection, schedule: Q01DX001 (ip), vehicle: saline sonified",100 % of control
same,T/C,"dose: 50.0 mg/kg/injection, schedule: Q01DX001 (ip), vehicle: saline sonified",100 % of control
same,T/C,"dose: 100.0 mg/kg/injection, schedule: Q01DX001 (ip), vehicle: saline sonified",90 % of control
Cc1cc2nc(SCC(=O)O)[nH]c2cc1C,T/C,"dose: 100.0 mg/kg/injection, schedule: Q01DX009 (ip), vehicle: gum acacia",107 % of control
same,T/C,"dose: 100.0 mg/kg/injection, schedule: Q04DX003 (ip), vehicle: gum acacia",103 % of control
same,T/C,"dose: 200.0 mg/kg/injection, schedule: Q01DX009 (ip), vehicle: gum acacia",100 % of control
same,T/C,"dose: 200.0 mg/kg/injection, schedule: Q04DX003 (ip), vehicle: gum acacia",107 % of control
same,T/C,"dose: 400.0 mg/kg/injection, schedule: Q01DX009 (ip), vehicle: gum acacia",96 % of control
same,T/C,"dose: 400.0 mg/kg/injection, schedule: Q04DX003 (ip), vehicle: gum acacia",107 % of control
c1csc(C[N+]23CN4CN(CN(C4)C2)C3)c1,T/C,[7],116 % of control
Cc1cc(=O)[nH]c2c1CCC2,T/C,[4],109 % of control
same,T/C,[8],100 % of control
same,T/C,[5],90 % of control
same,T/C,[9],100 % of control
same,T/C,[6],104 % of control
same,T/C,[10],100 % of control
CCOC(CNC(=O)OCc1ccccc1)OCC,T/C,[1],105 % of control
same,T/C,[2],100 % of control
same,T/C,[3],105 % of control
CCOC(=O)c1ccc(OP(=O)(N(C)C)N(C)C)cc1,T/C,"dose: 12.5 mg/kg/injection, schedule: Q01DX009 (ip), vehicle: saline with Tween-80",101 % of control
same,T/C,"dose: 25.0 mg/kg/injection, schedule: Q01DX009 (ip), vehicle: saline with Tween-80",110 % of control
same,T/C,[4],100 % of control and 119 % of control
CN(c1ccccc1)c1ccc([N+](=O)[O-])c2no[n+]([O-])c12,T/C,"dose: 15.0 mg/kg/injection, schedule: Q01DX009 (ip), vehicle: saline with Tween-80",106 % of control
same,T/C,"dose: 30.0 mg/kg/injection, schedule: Q01DX009 (ip), vehicle: saline with Tween-80",118 % of control
CNC(=O)NCCOC(=O)NC,T/C,[11],100 % of control
same,T/C,[12],100 % of control
CC(C)(C)OOC(=O)c1ccccc1O,T/C,"dose: 12.5 mg/kg/injection, schedule: Q04DX003 (ip), vehicle: other",102 % of control
same,T/C,"dose: 25.0 mg/kg/injection, schedule: Q04DX003 (ip), vehicle: other",101 % of control
same,T/C,[4],122 % of control
same,T/C,"dose: 50.0 mg/kg/injection, schedule: Q04DX003 (ip), vehicle: other",101 % of control
same,T/C,"dose: 100.0 mg/kg/injection, schedule: Q04DX003 (ip), vehicle: other",118 % of control
O=C1c2ccccc2CCCC12OC2c1ccccc1 (stereo unspecified),T/C,"dose: 75.0 mg/kg/injection, schedule: Q04DX003 (ip), vehicle: Klucel (hydroxypropylcellulose) (HPC)",95 % of control
same,T/C,"dose: 150.0 mg/kg/injection, schedule: Q04DX003 (ip), vehicle: Klucel (hydroxypropylcellulose) (HPC)",104 % of control
same,T/C,"dose: 300.0 mg/kg/injection, schedule: Q04DX003 (ip), vehicle: Klucel (hydroxypropylcellulose) (HPC)",90 % of control
CC(=O)CC(C)(C)N,T/C,[13],95 % of control
same,T/C,[14],104 % of control
CNc1cc(C(C)C)ccc1C,T/C,"dose: 32.5 mg/kg/injection, schedule: Q01DX009 (sc), vehicle: olive oil, sesame oil, peanut oil",104 % of control
same,T/C,"dose: 65.0 mg/kg/injection, schedule: Q01DX009 (sc), vehicle: olive oil, sesame oil, peanut oil",104 % of control
same,T/C,"dose: 100.0 mg/kg/injection, schedule: Q04DX003 (sc), vehicle: olive oil, sesame oil, peanut oil",104 % of control
same,T/C,"dose: 130.0 mg/kg/injection, schedule: Q01DX009 (sc), vehicle: olive oil, sesame oil, peanut oil",100 % of control
same,T/C,"dose: 200.0 mg/kg/injection, schedule: Q04DX003 (sc), vehicle: olive oil, sesame oil, peanut oil",109 % of control
same,T/C,"dose: 400.0 mg/kg/injection, schedule: Q04DX003 (sc), vehicle: olive oil, sesame oil, peanut oil",118 % of control
N#Cc1ccc(Oc2ccc(C#N)cc2)cc1,T/C,[9],92 % of control
same,T/C,[10],88 % of control
same,T/C,"dose: 400.0 mg/kg/injection, schedule: Q04DX003 (ip), vehicle: saline with Tween-80",88 % of control
NC(N)=Nc1ccc(S(=O)(=O)O)cc1,T/C,"dose: 12.5 mg/kg/injection, schedule: Q01DX009 (ip), vehicle: saline",108 % of control
same,T/C,[13],108 % of control
same,T/C,[14],91 % of control
same,T/C,[7],106 % of control
CCOc1ccc(Br)cc1/C=C/C(C)=O,T/C,[7],109 % of control
same,T/C,"dose: 100.0 mg/kg/injection, schedule: Q04DX003 (ip), vehicle: saline",112 % of control
same,T/C,[11],95 % of control
same,T/C,"dose: 200.0 mg/kg/injection, schedule: Q04DX003 (ip), vehicle: saline",95 % of control
same,T/C,[12],104 % of control
same,T/C,"dose: 400.0 mg/kg/injection, schedule: Q04DX003 (ip), vehicle: saline",100 % of control
O=C1C=CC(=O)c2c(Cl)ccc(O)c21,T/C,"dose: 0.63 mg/kg/injection, schedule: Q01DX009 (ip), vehicle: Klucel (hydroxypropylcellulose) (HPC)",116 % of control
O=c1[nH]c2ccc(Br)cc2c(=O)o1,T/C,"dose: 25.0 mg/kg/injection, schedule: Q01DX001 (ip), vehicle: Klucel (hydroxypropylcellulose) (HPC)",104 % of control
same,T/C,"dose: 35.0 mg/kg/injection, schedule: Q01DX001 (ip), vehicle: Klucel (hydroxypropylcellulose) (HPC)",109 % of control
same,T/C,"dose: 50.0 mg/kg/injection, schedule: Q01DX001 (ip), vehicle: Klucel (hydroxypropylcellulose) (HPC)",104 % of control
same,T/C,"dose: 75.0 mg/kg/injection, schedule: Q01DX001 (ip), vehicle: Klucel (hydroxypropylcellulose) (HPC)",95 % of control
same,T/C,[5],150 % of control
same,T/C,"dose: 250.0 mg/kg/injection, schedule: Q01DX001 (ip), vehicle: Klucel (hydroxypropylcellulose) (HPC)",92 % of control
same,T/C,"dose: 400.0 mg/kg/injection, schedule: Q01DX001 (ip), vehicle: Klucel (hydroxypropylcellulose) (HPC)",88 % of control
Cc1ccc(CNc2cc(C)ccn2)cc1,T/C,[8],105 % of control
same,T/C,[9],110 % of control
same,T/C,[10],110 % of control
